For 14 compounds, T/C results are on record in PubChem BioAssay AID248 (DTP/NCI, 2004).

This experiment has as its system L1210 leukemia ip in BDF1 mice, survival T/C. The experiment is described as follows: NCI In Vivo Anticancer Drug Screen. Data for tumor model L1210 Leukemia (intraperitoneal) in B6D2F1 (BDF1) mice. The note with it: endpoint: mean survival time, higher = longer survival. The method, boiled down:
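Survival endpoint. Drug-treated group vs vehicle group, expressed as T divided by C. Tumor passaged by transplantation.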

The mark [1] stands for this setting: dose: 25.0 mg/kg/injection, schedule: Q04DX003 (ip), vehicle: saline.
Setting [2] is: dose: 50.0 mg/kg/injection, schedule: Q01DX001 (ip), vehicle: carboxymethylcellulose (CMC).
[3] abbreviates: dose: 50.0 mg/kg/injection, schedule: Q04DX003 (ip), vehicle: saline.
[4] abbreviates: dose: 100.0 mg/kg/injection, schedule: Q01DX001 (ip), vehicle: saline.
Where [5] appears, read: dose: 100.0 mg/kg/injection, schedule: Q04DX003 (ip), vehicle: Klucel (hydroxypropylcellulose) (HPC).
Setting [6] is: dose: 200.0 mg/kg/injection, schedule: Q04DX003 (ip), vehicle: Klucel (hydroxypropylcellulose) (HPC).
The mark [7] stands for this setting: dose: 100.0 mg/kg/injection, schedule: Q01DX009 (ip), vehicle: Klucel (hydroxypropylcellulose) (HPC).
The mark [8] stands for this setting: dose: 200.0 mg/kg/injection, schedule: Q01DX009 (ip), vehicle: Klucel (hydroxypropylcellulose) (HPC).

Molecules are shown by their SMILES. “And” between values parts separate entries of the source, which are not always exact repeats. Identical values can stand only once. Toxic doses and inconclusive results are not listed.

On to `O=C1CC23CCC12CCCC3=O` (stereo not given), for which the T/C by setting is: (dose: 100.0 mg/kg/injection, schedule: Q04DX002 (ip), vehicle: saline with Tween-80) 100 % of control; (dose: 200.0 mg/kg/injection, schedule: Q04DX002 (ip), vehicle: saline with Tween-80) 93 % of control; (dose: 400.0 mg/kg/injection, schedule: Q04DX002 (ip), vehicle: saline with Tween-80) 97 % of control.

For `Ic1c2ccccc2cc2ccccc12`, the T/C reads like this: (dose: 50.0 mg/kg/injection, schedule: Q04DX002 (ip), vehicle: Klucel (hydroxypropylcellulose) (HPC)) 95 % of control and 123 % of control; (dose: 100.0 mg/kg/injection, schedule: Q04DX002 (ip), vehicle: Klucel (hydroxypropylcellulose) (HPC)) 103 % of control and 86 % of control; (dose: 200.0 mg/kg/injection, schedule: Q04DX002 (ip), vehicle: Klucel (hydroxypropylcellulose) (HPC)) 108 % of control and 92 % of control; (dose: 400.0 mg/kg/injection, schedule: Q04DX002 (ip), vehicle: Klucel (hydroxypropylcellulose) (HPC)) 92 % of control.

`O=C(/C(=N\N=C\c1c(O)ccc2ccccc12)c1ccccc1)c1ccccc1`: the T/C by setting is: (dose: 100.0 mg/kg/injection, schedule: Q04DX003 (ip), vehicle: saline with Tween-80) 96 % of control; (dose: 200.0 mg/kg/injection, schedule: Q04DX003 (ip), vehicle: saline with Tween-80) 98 % of control; (dose: 400.0 mg/kg/injection, schedule: Q04DX003 (ip), vehicle: saline with Tween-80) 94 % of control.

In the case of `NS(=O)(=O)c1ncnc2nc[nH]c12`, the T/C is, setting by setting: (dose: 5.0 mg/kg/injection, schedule: Q01DX Z (ip), vehicle: methylcellulose (MC)) 108 % of control; (dose: 10.0 mg/kg/injection, schedule: Q01DX Z (ip), vehicle: methylcellulose (MC)) 109 % of control; (dose: 22.0 mg/kg/injection, schedule: Q01DX001 (ip), vehicle: carboxymethylcellulose (CMC)) 109 % of control and 117 % of control; (dose: 22.0 mg/kg/injection, schedule: Q01DX Z (ip), vehicle: carboxymethylcellulose (CMC)) 124 % of control; (dose: 24.75 mg/kg/injection, schedule: Q01DX009 (ip), vehicle: saline) 121 % of control; under setting [1], 117 % of control. Also, the T/C is, setting by setting: (dose: 30.0 mg/kg/injection, schedule: Q04DX003 (ip), vehicle: saline) 121 % of control; (dose: 33.0 mg/kg/injection, schedule: Q01DX001 (ip), vehicle: carboxymethylcellulose (CMC)) 107 % of control and 109 % of control; (dose: 33.0 mg/kg/injection, schedule: Q01DX Z (ip), vehicle: carboxymethylcellulose (CMC)) 120 % of control; (dose: 37.5 mg/kg/injection, schedule: Q01DX009 (ip), vehicle: saline) 119 % of control; under setting [2], 114 % of control and 119 % of control; under setting [3], 120 % of control. In addition, the T/C by setting is: (dose: 66.0 mg/kg/injection, schedule: Q04DX003 (ip), vehicle: saline) 114 % of control; (dose: 75.0 mg/kg/injection, schedule: Q01DX001 (ip), vehicle: carboxymethylcellulose (CMC)) 117 % of control; (dose: 75.0 mg/kg/injection, schedule: Q01DX009 (ip), vehicle: saline with Tween-80) 101 % of control; (dose: 75.0 mg/kg/injection, schedule: Q01DX Z (ip), vehicle: carboxymethylcellulose (CMC)) 152 % of control and 159 % of control and 165 % of control; under setting [4], 115 % of control; (dose: 114.0 mg/kg/injection, schedule: Q01DX Z (ip), vehicle: carboxymethylcellulose (CMC)) 93 % of control. The T/C (dose: 200.0 mg/kg/injection, schedule: Q01DX Z (ip), vehicle: methylcellulose (MC)) was 113 % of control.

On to `CN(C)C(=O)OCC[N+](C)(C)CCCCCC[N+](C)(C)CCOC(=O)N(C)C`, for which the T/C is, setting by setting: (dose: 12.0 mg/kg/injection, schedule: Q04DX003 (ip), vehicle: saline) 105 % of control; under setting [1], 96 % of control; under setting [3], 97 % of control; (dose: 75.0 mg/kg/injection, schedule: Q04DX003 (ip), vehicle: saline) 92 % of control.

For the compound `CCCc1c(O)ccc(C)c1C`, the T/C (dose: 100.0 mg/kg/injection, schedule: Q01DX001 (ip), vehicle: other) was 91 % of control and the T/C (dose: 200.0 mg/kg/injection, schedule: Q01DX001 (ip), vehicle: other) was 103 % of control.

On to `O=S(=O)(Cc1ccc(Cl)cc1Cl)Cc1ccc(Cl)cc1Cl`, for which the T/C was 89 % of control under setting [5]; 87 % of control under setting [6]; 87 % of control (dose: 400.0 mg/kg/injection, schedule: Q04DX003 (ip), vehicle: Klucel (hydroxypropylcellulose) (HPC)).

With `CCNC(=NC)c1ccc(NC(=O)c2ccc(C(=O)Nc3ccc(C(=NC)NCC)cc3)cc2)cc1`, the T/C (dose: 1.3 mg/kg/injection, schedule: Q01DX Z (ip), vehicle: carboxymethylcellulose (CMC)) was 98 % of control; the T/C (dose: 1.9 mg/kg/injection, schedule: Q01DX Z (ip), vehicle: carboxymethylcellulose (CMC)) is 96 % of control; the T/C (dose: 2.9 mg/kg/injection, schedule: Q01DX Z (ip), vehicle: carboxymethylcellulose (CMC)) is 153 % of control; the T/C (dose: 4.4 mg/kg/injection, schedule: Q01DX Z (ip), vehicle: carboxymethylcellulose (CMC)) was 119 % of control; the T/C (dose: 6.6 mg/kg/injection, schedule: Q01DX Z (ip), vehicle: carboxymethylcellulose (CMC)) was 116 % of control; the T/C (dose: 10.0 mg/kg/injection, schedule: Q01DX Z (ip), vehicle: carboxymethylcellulose (CMC)) was 110 % of control. In addition, for the setting “dose: 15.0 mg/kg/injection, schedule: Q01DX Z (ip), vehicle: carboxymethylcellulose (CMC)”, the T/C is 98 % of control.

With `CC(C)n1cc2cc([N+](=O)[O-])ccc2n1`, the T/C reads like this: (dose: 50.0 mg/kg/injection, schedule: Q01DX009 (ip), vehicle: Klucel (hydroxypropylcellulose) (HPC)) 91 % of control; under setting [7], 97 % of control; under setting [8], 97 % of control.

Turning to `CCCCSP(=S)(Cc1ccccc1)SCCCC`, the T/C was 95 % of control under setting [5] and 93 % of control under setting [6].

As for `Cc1ccc(N2C(=O)CC(N3CCCCC3)C2=O)cc1` (stereo not given), the T/C is, setting by setting: under setting [7], 102 % of control; under setting [8], 96 % of control; (dose: 400.0 mg/kg/injection, schedule: Q01DX009 (ip), vehicle: Klucel (hydroxypropylcellulose) (HPC)) 91 % of control.

As for `CCCc1cc2c3c(c(=O)oc2cc1OCCN1CCCC1)CCCC3`, the T/C runs as follows: (dose: 37.5 mg/kg/injection, schedule: Q01DX001 (ip), vehicle: saline with Tween-80) 92 % of control; (dose: 37.5 mg/kg/injection, schedule: Q04DX003 (ip), vehicle: saline with Tween-80) 96 % of control; (dose: 75.0 mg/kg/injection, schedule: Q01DX001 (ip), vehicle: saline with Tween-80) 94 % of control; (dose: 75.0 mg/kg/injection, schedule: Q04DX003 (ip), vehicle: saline with Tween-80) 100 % of control; (dose: 150.0 mg/kg/injection, schedule: Q01DX001 (ip), vehicle: saline with Tween-80) 100 % of control; (dose: 150.0 mg/kg/injection, schedule: Q04DX003 (ip), vehicle: saline with Tween-80) 98 % of control.

Take `Cc1cc(Cl)n[nH]c1=O`: the T/C is 105 % of control under setting [4]; 104 % of control (dose: 200.0 mg/kg/injection, schedule: Q01DX001 (ip), vehicle: saline); 102 % of control (dose: 400.0 mg/kg/injection, schedule: Q01DX001 (ip), vehicle: saline).

As for `c1ccc2c(c1)ccc1cc3c4ccccc4c4ccccc4c3cc12`, the T/C is 97 % of control under setting [2]; 90 % of control (dose: 200.0 mg/kg/injection, schedule: Q01DX001 (ip), vehicle: carboxymethylcellulose (CMC)); 106 % of control (dose: 400.0 mg/kg/injection, schedule: Q01DX001 (ip), vehicle: carboxymethylcellulose (CMC)).
